Data reported in PMC10374108, “Structural and biochemical characterization of the key components of an auxin degradation operon from the rhizosphere bacterium Variovorax” (PLOS Biology, 2023).
“And” between values parts separate entries of the source, which are not always exact repeats. Equal values may be shown once. “Also recorded” adds a separate entry of the source. Read-outs that look alike come from different tables or passages of the source.

Columns and labels:
IadK3 [1] = assay: Thermal shift assay (TSA), IadK3 with IAA and analogs; assay type: binding, Variovorax paradoxus CL14; settings: IadK3 with IAA, replicates
Description: (§1) Ligands concentrations were tested at 2- to […] excess (10 to 1,000 μM) relative to the proteins (5 μM). The fluorescence dye SYPRO Orange at a final of 200-fold dilution was used to monitor the unfolding of proteins. The protein and ligand were incubated for 10 min at room temperature before the addition of SYPRO Orange dye. The QuantStudio 1 Plus real-time PCR system (Thermo Fisher) was used to control the temperature increasing from […] to […] with an increment of […] and to monitor the fluorescence (excitation: 520 ± 10 nm and emission: 558 ± 10 nm). Each tested group was run in triplicate and repeated. Data was imported to the Protein Thermal Shift software for analysis and plotting.

IadH = IadH (Variovorax paradoxus, UniProt A0A0H2LZB5); assay: ITC, IAA binding to IadH; parameters: species or system Variovorax paradoxus CL14
Description: (§2) ITC experiments were performed using a MicroCal PEAQ-ITC system (Malvern). All the experiments were performed at […] in a buffer containing 25 mM Tris-HCl (pH 7.5) and 150 mM NaCl (unless otherwise stated). […] Data was analyzed using the MicroCal PEAQ-ITC analysis software. All the measurements were repeated at least 2 times.

Iad proteins = assay: Thermal shift assay (TSA), other Iad proteins with IAA; assay type: binding, Variovorax paradoxus CL14; settings: for ΔTm: replicates
Description: as §1

IadK3 point mutants = assay: IAA binding to IadK3 point mutants (response to reviewers); parameters: species or system Variovorax paradoxus CL14; settings: pocket residues replaced by those of IadK2
Text: We have performed point mutations for substitute residues in the potential ligand binding pocket of AdgA (now named as IadK3) with corresponding amino acids of AdgB (now named as IadK2). […] One potential explanation could be that residues beyond the putative ligand binding pocket may regulate the conformation of IadK3 and ligand binding specificity. Further studies would be required to further examined the ligand binding specificity of IadK3.

IadK2 [2] = molecular target: IadK2 (Variovorax paradoxus, UniProt T1X8R6); assay: ITC, auxins binding to IadK2
Description: as §2

IadG = assay: ITC, IAA binding to IadG; parameters: species or system Variovorax paradoxus CL14
Description: as §2

IadJ = IadJ (Variovorax paradoxus, UniProt A0A0H2M0A9); assay: ITC, IAA binding to IadJ; parameters: species or system Variovorax paradoxus CL14
Description: as §2

IadK2 [3] = assay: Thermal shift assay (TSA), IadK2 with IAA and analogs; assay type: binding, Variovorax paradoxus CL14
Description: as §1

IadK2 mutants [4] = assay: Thermal shift assay (TSA), IadK2 mutants and IAA; assay type: binding, Variovorax paradoxus CL14; parameters: unit not given here; settings: replicates
Description: as §1

MarR = molecular target: MarR; parameters: method as in Conway et al. 2022; settings: MarR domains, high affinity IAA binding; ref Conway et al. 2022; cited from earlier work
IadF = IadF (Variovorax paradoxus, UniProt A0A0H2MF82); assay: ITC, IAA binding to IadF; parameters: species or system Variovorax paradoxus CL14
Description: as §2

IadK2 mutants [5] = molecular target: IadK2 mutants (Variovorax paradoxus, UniProt T1X8R6, W172A); assay: ITC, IAA binding to IadK2 mutants; parameters: species or system Variovorax paradoxus CL14; settings: IadK2 mutant W172A, replicates
Description: as §2

IadK2 mutants [6] = molecular target: IadK2 mutants (Variovorax paradoxus, UniProt T1X8R6, R199A); assay: ITC, IAA binding to IadK2 mutants; parameters: species or system Variovorax paradoxus CL14; settings: Kd
Description: as §2

IadK3 [7] = molecular target: IadK3 (Variovorax paradoxus, UniProt A0A0H2LZ84); assay: ITC, auxins binding to IadK3; parameters: species or system Variovorax paradoxus CL14
Description: as §2

IadC = molecular target: T1, IadC (Variovorax paradoxus, UniProt C5CSP5); assay: In vitro IAA transformation assay, IadC alone; assay type: biochemical, Variovorax paradoxus CL14; settings: result in words
T1 sequence (C5CSP5 1-330): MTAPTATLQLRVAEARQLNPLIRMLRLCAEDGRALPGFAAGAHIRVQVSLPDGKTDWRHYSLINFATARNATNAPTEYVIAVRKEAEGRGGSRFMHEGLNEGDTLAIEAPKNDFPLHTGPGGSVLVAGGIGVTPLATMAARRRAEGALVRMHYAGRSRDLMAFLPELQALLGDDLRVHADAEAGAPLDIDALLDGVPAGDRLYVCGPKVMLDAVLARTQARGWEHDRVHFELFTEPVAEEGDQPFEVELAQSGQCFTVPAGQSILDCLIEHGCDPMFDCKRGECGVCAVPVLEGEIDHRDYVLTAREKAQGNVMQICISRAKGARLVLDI
Description: In vitro assay was performed to test the capability of IadC/D/E enzymes encoded by the iad operon in transforming IAA and analogs. The reaction mixture was composed of 100 mM Tris-HCl (pH7.5), 250 μM reduced NADH, 10 μM ammonium iron (II) sulfate, and 3 μM of each enzyme component. […] The mixture was vortexed periodically to introduce oxygen for the reaction and was boiled to stop the reaction. After pelleting the precipitants, the supernatant was collected and mixed with 2 volumes of Salkowski reagent made of 0.5 M ferric chloride and 35% perchloric acid for the quantification of residual substrate by measuring the adsorption at 530 nm.

IadJ, sequence (A0A0H2M0A9 entry or part of it): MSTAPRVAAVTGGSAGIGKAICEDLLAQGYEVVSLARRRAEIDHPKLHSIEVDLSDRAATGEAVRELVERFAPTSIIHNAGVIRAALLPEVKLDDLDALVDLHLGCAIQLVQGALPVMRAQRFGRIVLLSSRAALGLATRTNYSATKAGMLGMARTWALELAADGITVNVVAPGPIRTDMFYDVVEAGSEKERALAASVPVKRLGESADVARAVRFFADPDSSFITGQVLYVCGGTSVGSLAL
IadK2 mutants (Variovorax paradoxus, UniProt T1X8R6, W172A), sequence (T1X8R6 entry or part of it W172A): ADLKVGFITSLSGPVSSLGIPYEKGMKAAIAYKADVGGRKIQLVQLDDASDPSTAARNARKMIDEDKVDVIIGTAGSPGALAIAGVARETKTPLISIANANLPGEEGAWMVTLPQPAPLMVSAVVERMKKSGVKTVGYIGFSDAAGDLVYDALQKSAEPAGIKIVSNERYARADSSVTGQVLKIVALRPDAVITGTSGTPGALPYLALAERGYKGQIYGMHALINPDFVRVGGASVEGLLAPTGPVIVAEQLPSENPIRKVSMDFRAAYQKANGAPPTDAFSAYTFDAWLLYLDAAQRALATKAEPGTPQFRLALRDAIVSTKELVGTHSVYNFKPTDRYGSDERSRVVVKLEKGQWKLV
IadK2 (Variovorax paradoxus, UniProt T1X8R6), sequence (T1X8R6 entry or part of it): as the sequence (T1X8R6 entry or part of it W172A) above, with A145W counted along it
IadF, sequence (A0A0H2MF82 entry or part of it): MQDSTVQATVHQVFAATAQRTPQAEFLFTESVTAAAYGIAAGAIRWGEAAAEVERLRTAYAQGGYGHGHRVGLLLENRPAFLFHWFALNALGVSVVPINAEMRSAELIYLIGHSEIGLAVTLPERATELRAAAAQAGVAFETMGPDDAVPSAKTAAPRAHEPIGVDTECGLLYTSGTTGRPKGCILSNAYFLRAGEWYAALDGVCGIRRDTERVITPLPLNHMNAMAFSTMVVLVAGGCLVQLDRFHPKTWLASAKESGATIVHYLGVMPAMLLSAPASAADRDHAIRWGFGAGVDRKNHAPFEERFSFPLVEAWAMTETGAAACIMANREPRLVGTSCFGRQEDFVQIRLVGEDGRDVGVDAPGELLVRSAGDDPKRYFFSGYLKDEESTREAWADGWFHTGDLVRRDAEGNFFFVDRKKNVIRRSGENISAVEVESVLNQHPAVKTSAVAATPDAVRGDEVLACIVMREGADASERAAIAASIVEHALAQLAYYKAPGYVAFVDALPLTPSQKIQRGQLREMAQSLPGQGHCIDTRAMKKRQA
IadK3 (Variovorax paradoxus, UniProt A0A0H2LZ84), sequence (A0A0H2LZ84 entry or part of it): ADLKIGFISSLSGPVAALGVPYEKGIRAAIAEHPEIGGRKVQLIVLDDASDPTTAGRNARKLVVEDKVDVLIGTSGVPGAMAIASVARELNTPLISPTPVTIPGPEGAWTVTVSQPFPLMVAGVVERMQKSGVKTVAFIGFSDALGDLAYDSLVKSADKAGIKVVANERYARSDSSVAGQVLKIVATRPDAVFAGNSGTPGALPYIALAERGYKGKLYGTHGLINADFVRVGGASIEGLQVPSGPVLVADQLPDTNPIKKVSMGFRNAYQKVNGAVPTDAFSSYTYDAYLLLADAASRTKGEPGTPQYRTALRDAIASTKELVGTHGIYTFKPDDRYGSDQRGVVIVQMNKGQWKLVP
IadH, sequence (A0A0H2LZB5 entry or part of it): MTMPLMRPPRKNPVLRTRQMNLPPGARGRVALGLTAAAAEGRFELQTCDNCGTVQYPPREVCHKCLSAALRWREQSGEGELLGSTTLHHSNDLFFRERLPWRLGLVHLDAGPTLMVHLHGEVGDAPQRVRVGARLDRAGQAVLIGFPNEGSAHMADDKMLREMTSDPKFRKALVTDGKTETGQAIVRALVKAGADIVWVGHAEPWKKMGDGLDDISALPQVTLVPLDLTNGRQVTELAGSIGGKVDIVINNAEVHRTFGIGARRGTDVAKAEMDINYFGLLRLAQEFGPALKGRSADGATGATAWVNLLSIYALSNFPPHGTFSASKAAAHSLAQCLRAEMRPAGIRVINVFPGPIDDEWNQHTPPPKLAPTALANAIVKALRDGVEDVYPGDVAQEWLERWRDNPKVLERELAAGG
IadK2 mutants (Variovorax paradoxus, UniProt T1X8R6, R199A), sequence (T1X8R6 entry or part of it R199A): as the sequence (T1X8R6 entry or part of it W172A) above, with A145W, R172A counted along it

With O=C(O)Cc1c[nH]c2ccccc12 [IAA, indole-3-acetic acid] the ΔTm (IadK3 [1]) was 0.997 °C and -0.4983 °C and -0.9966 °C, the “IAA binding (ITC)” value (IadH) was “no binding detected” and the Kd (IadH; ITC, replicates) was > 100 µM. For the same compound, the “effect on melting temperature (TSA)” value (Iad proteins; Iad proteins other than IadK2, result in words) was “no profound effects”, the ΔTm (Iad proteins; IadC with IAA) was -0.4983 °C and 0.9966 °C and 0 °C and the ΔTm (Iad proteins; IadF with IAA) was 0.4983 °C and -0.9966 °C and 0 °C. For the same compound, the ΔTm (Iad proteins; IadG with IAA) was 1.495 °C (2×) and 1.993 °C, the ΔTm (Iad proteins; IadH with IAA) was 0.9966 °C and 0 °C and -0.4983 °C and the ΔTm (Iad proteins; IadI with IAA) was 0.4983 °C and -0.4983 °C and -1.993 °C. The ΔTm (Iad proteins; IadJ with IAA) was 0 °C and 0.4983 °C and 1.495 °C, the “binding of IAA to IadK3 point mutants” value (IadK3 point mutants) was “none of the mutations could make IadK3 bind with IAA” and the Kd (IadK2 [2]; ITC, biphasic isotherm, IadK2 + IAA, mean ± SEM, 3 measurements, read-out: KD1) was 0.53 ± 0.08 µM. For the same compound, the Kd (IadK2 [2]; ITC, biphasic isotherm, IadK2 + IAA, mean ± SEM, 3 measurements, read-out: KD2) was 0.009 ± 0.00305 µM, the Kd (IadK2 [2]; IadK2, ITC, replicates, read-out: Kd1) was 500 nM and 600 nM (2×) and the Kd (IadK2 [2]; IadK2, ITC, replicates, read-out: Kd2) was 0.0083 µM and 0.012 µM and 0.0114 µM. The “IAA binding (ITC)” value (IadG) was “no binding detected”, the Kd (IadG; ITC, replicates) was > 100 µM and the “IAA binding (ITC)” value (IadJ) was “no binding detected”. The Kd (IadJ; ITC, replicates) was > 100 µM, the “Tm change with IAA (TSA)” value (IadK2 [3]; IadK2 WT, replicates, Fig 2E) was 5.98 and the ΔTm (IadK2 [3]; IadK2 with IAA, replicates) was 5.98 °C. For the same compound, the “stabilization of IadK2 (melting temperature, TSA)” value (IadK2 [3]; result in words) was “substantially increased the melting temperature; also recorded: most significant stabilization effect”, the “Tm change with IAA (TSA)” value (IadK2 mutants [4]; IadK2 A125G) was 2.99 and 2.492 and 3.488 and the “Tm change with IAA (TSA)” value (IadK2 mutants [4]; IadK2 A125T/N126P) was 1.993 and 1.495 (2×). The “Tm change with IAA (TSA)” value (IadK2 mutants [4]; IadK2 A249G) was 3.986 and 4.485 and 5.4814, the “Tm change with IAA (TSA)” value (IadK2 mutants [4]; IadK2 F168G) was 0.4983 and the “Tm change with IAA (TSA)” value (IadK2 mutants [4]; IadK2 F308G) was 1.495. For the same compound, the “Tm change with IAA (TSA)” value (IadK2 mutants [4]; IadK2 H248G) was 2.492 (2×) and 3.488, the “Tm change with IAA (TSA)” value (IadK2 mutants [4]; IadK2 N126A) was 3.488 (2×) and 2.99 and the “Tm change with IAA (TSA)” value (IadK2 mutants [4]; IadK2 R199A) was 0.4983 and 0 (2×). The “Tm change with IAA (TSA)” value (IadK2 mutants [4]; IadK2 S014V/W172L) was 0, the “Tm change with IAA (TSA)” value (IadK2 mutants [4]; IadK2 S104A) was 2.99 and 2.492 and 3.488 and the “Tm change with IAA (TSA)” value (IadK2 mutants [4]; IadK2 S104V) was 2.492 and 1.495 and 1.993. The “Tm change with IAA (TSA)” value (IadK2 mutants [4]; IadK2 S224A) was 2.99 and 3.986 (2×), the “Tm change with IAA (TSA)” value (IadK2 mutants [4]; IadK2 W172A) was 0.4983 and 0 (2×) and the “Tm change with IAA (TSA)” value (IadK2 mutants [4]; IadK2 W172L) was 0. For the same compound, the “Tm change with IAA (TSA)” value (IadK2 mutants [4]; IadK2 Y311A) was 0, the Kd (MarR) was ~0.3 µM and the “IAA binding (ITC)” value (IadF) was “no binding detected”. The Kd (IadF; ITC, replicates) was > 100 µM, the Kd (IadK2 mutants [5]) was > 100 µM and the Kd (IadK2 mutants [5]; Kd) was > 100 µM. For the same compound, the Kd (IadK2 mutants [6]; IadK2 R199A, IAA, mean ± SD) was 11.2 ± 1.8 µM, the Kd (IadK2 mutants [6]; IadK2 mutant R199A, replicates) was 9.5 µM and 10.4 µM and the Kd (IadK3 [7]; IadK3, ITC, replicates, read-out: ITC binding) was > 100 µM. The “binding to IadK3 (ITC)” value (IadK3 [7]; result in words) was “no obvious binding” and the “transformation by IadC alone” value (IadC) was “neither IadD/E nor IadC alone could catalyze the transformation”.
